Measurements taken from US11890279B2, “Quinolines that modulate SERCA and their use for treating disease” (Neurodon Corporation, priority 2020, dated 2024).

Experiments:
N2a cells [1] = test: Protection against hydrogen peroxide-induced cell death, N2a; type: cell-based, mouse; conditions: compound 40 μM; hydrogen peroxide 200 μM
Experimental: Protection against Hydrogen Peroxide-induced Cell-death. N2a cells grown in 96-well plates were exposed to a test compound (40 μM) for 2 hrs before addition of hydrogen peroxide (200 μM). After 40 min of incubation with hydrogen peroxide, ALAMARBLUE® regent (10% v/v) was added to the wells. Fluorescence reading was taken 2 hrs after the addition of the ALAMARBLUE® regent. Cell-viability was calculated as a percentage of relative fluorescence unit (RFU) compared to control.
(§1) The results are summarized in Table 2, where A represents a value greater than 50% cell rescue, B represents a value between 10% to 50% cell rescue, C represents a value between 1% to 10% cell rescue, and D represents a value no greater than 1% cell rescue.

N2a cells [2] = test: Protection against thapsigargin (TG)-induced cell death, N2a; type: cell-based, mouse; conditions: compound 20 μM; thapsigargin 1 μM; 24 hrs
Experimental: (§2) Protection against Thapsigargin (TG)-induced Cell-death. Human embryonic kidney (HEK293) cells were grown in Dulbecco's Modified Eagle's Medium (DMEM) with 10% FBS and 1% antibiotic antimycotic solution (ABAM). Mouse neuroblastoma (N2a) cells were grown in 1:1 DMEM:OPTI-MEM® with 5% FBS and 1% ABAM. All cells were grown in 10% CO2 in a humidified environment of the incubator. Cells grown in 96-well plates were exposed to a test compound (20 μM) for 2 hrs before addition of thapsigargin (15 μM for HEK293 cells and 1 μM for N2a cells) to induce ER stress. After incubation in cell-culture incubator for 24 hrs, ALAMARBLUE® regent (10% v/v) was added to the wells. Fluorescence reading was taken 2 hrs after the addition of the ALAMARBLUE® regent. Cell-viability was calculated as a percentage of relative fluorescence unit (RFU) compared to control.
as §1

[3] = Pharmacokinetics in CD-1 mice; type: in vivo, mouse; conditions: CD-1 mice; for F: 10 mg/kg P.O. vs 2 mg/kg i.v.; for AUC / Cmax / half-life: mouse, plasma, 2 mg/kg i.v. or 10 mg/kg P.O.
Experimental: Pharmacokinetics of test compounds were assessed in CD-1 mice. The compounds were formulated at 1 mg/mL in DMSO/Tween 80/water (10/10/80, vol/vol/vol) and dosed at 2 mg/kg intravenous (i.v.) or 10 mg/kg by oral gavage (P.O.) in triplicate. Blood was drawn at 0.25 h, 0.5 h, 1 hr, 2 hrs, 4 hrs, 8 hrs, and 24 hrs into EDTA containing tubes and plasma was harvested by centrifugation. Plasma (10 μL) containing 50% acetonitrile in water (5 μL) was added to 200 μL of ACN containing an internal standard. The samples were vortexed for 30 s. After centrifugation at […] and 4,000 rpm for 15 min, the supernatant was diluted 3 times with water. Then, 20 μL of diluted supernatant was injected into the LC/MS/MS system for quantitative analysis. The samples were injected onto an Agilent ZORBAX XDB-Phenyl 5μ column (50×2.10 mm). Mobile Phase A was water with 0.1% formic acid. Mobile Phase B was acetonitrile with 0.1% formic acid. Separation was achieved using a gradient of 70% A/30% B to 0% A/100% B over 2.10 min. A Shimadzu LCMS-8050 equipped with a turbo ion spray source was used for all analytical measurements. A positive ion MRM method was developed. Peak areas of the product ion were measured against the peak areas of the internal standard. Data was fit using WinNonLin (Pharsight Corporation, Mountain View, CA).

SERCA (SR vesicles) = test: Activation of SERCA, increase in Vmax; type: biochemical
Experimental: Test compounds were characterized over a range of concentrations using an NADH-linked, enzyme-coupled ATPase assay. Each well contained 2 mg or 7 mg of SR vesicles (optimized for skeletal or cardiac SR, respectively), 50 mM MOPS (pH 7.0), 100 mM KCl, 5 mM MgCl2, 1 mM EGTA, 0.2 mM NADH, 1 mM phosphoenol pyruvate, 5 IU pyruvate kinase, 5 IU lactate dehydrogenase, and 3.5 mg/mL A23187 (a calcium ionophore), and CaCl2 was added to set free [Ca2+] to the specific values. The assay was started upon addition of ATP at a final concentration of 5 mM, and read in a SpectraMax Plus microplate spectrophotometer and the ATPase activities were fitted using the Hill function.

CSM14.1 cells = test: ER stress cell survival assay (thapsigargin); type: cell-based; conditions: for Cell Survival: compound 2 μM, about 15 μM thapsigargin, CSM14.1 cells; for EC50: dose-response;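 for cell survival: survival read as CellTiter-Glo luminescence after overnight incubation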
Experimental: ER Stress Cell Survival Assay
CSM14.1 cells were maintained in Complete Medium at 32° C.; wherein the Complete Medium contained Dulbecco's modified eagle medium (DMEM) with 10% fetal bovine serum (FSB), 1% L-glutamine, 100 IU/mL penicillin, and 100 μg/mL streptomycin. The cells were recovered from cultures by trypsinization and then seeded in 384 well plates (Greiner #781098) at a concentration of 1,000 cells/well in 20 μL of DMEM Assay Medium, wherein the DMEM Assay Medium contained 2% FBS, 100 IU/mL penicillin, and 100 μg/mL streptomycin. Seeding was performed using a MultiDrop Combi reagent broadcaster. The plates were incubated overnight at 32° C.
A test compound was prepared by 2-fold serial dilution in 100% DMSO using a BIOMEK® 2000 liquid handler (Beckman Coulter). A dose-response curve containing 10 concentrations of the test compound was obtained. Using a BIOMEK® FX liquid handler (Beckman Coulter), 2.5 μL of the test compound was transferred from the 100% DMSO serial dilution plate to an intermediate plate containing 47.5 μL of DMEM Assay Medium containing 2% FBS, 100 IU/mL penicillin, and 100 μg/mL streptomycin and mixed. To reduce or eliminate the interference from the compound's precipitation, 6 μL of the diluted compound was immediately transferred to the assay plate to achieve a high compound concentration of 100 μM in 99% DMEM Assay Medium and 1% DMSO. After the assay plates were incubated for 2 hrs, 4 μL of 112.5 μM thapsigargin (TG) (DMSO stock diluted into Assay TC Medium) was dispensed into each testing well with a MultiDrop Combi reagent broadcaster for a final concentration of about 15 μM TG. The tissue culture media (4 μL) containing vehicle only was transferred manually to each control cell using a 16 channel electronic pipette. […] High luminescence indicates cell survival.
Alternatively, a test compound was tested at a single compound concentration (e.g., 2 μM) to determine the effect of the compound on cell survival in comparison with vehicle.

HEK293 cells = test: Protection against thapsigargin (TG)-induced cell death, HEK293; type: cell-based, human; conditions: compound 20 μM; thapsigargin 15 μM; 24 hrs
Experimental: as §2, §1

| Structure (SMILES) | N2a Cells (H2O2-induced) cell rescue (N2a cells [1]) | N2a Cells (TG-induced) cell rescue (N2a cells [2]) | Increase in Vmax at 10 μM (SERCA (SR vesicles)) | also measured |
| --- | --- | --- | --- | --- |
| Cc1ccc2cccc(NC(=O)c3ccc(Br)s3)c2n1 [Compound B1, 5-Bromo-N-(2-methylquinolin-8-yl)thiophene-2-carboxamide] | A (A represents a value greater than 50% cell rescue) | B (B represents a value between 10% to 50% cell rescue) | B′ (B′ represents an increase between 20 to 50%) | F [3]: 2.9%; AUC [3]: 0.021 µg·h/mL; Cmax [3]: 0.08 µM; half-life [3]: 42 min |
| Cc1ccc2cccc(NC(=O)c3ccc(C(C)(C)C)cc3)c2n1 [Compound A4, 4-(tert-Butyl)-N-(2-methylquinolin-8-yl)benzamide] | – | – | B′ (B′ represents an increase between 20 to 50%) | Cell Survival (CSM14.1 cells): D (D represents a value no greater than 1%); EC50 (CSM14.1 cells): > 100 µM |
| Cc1cc(C)n(-c2ccc3cccc(NC(=O)c4cccc(OC(C)C)c4)c3n2)n1 [Compound F1, N-(2-(3,5-Dimethyl-1H-pyrazol-1-yl)quinolin-8-yl)-3-isopropoxybenzamide] | – | A (A represents a value greater than 50% cell rescue) | – | – |
| COc1ccccc1C(=O)Nc1cccc2ccc(C)nc12 [Compound A9, 2-Methoxy-N-(2-methylquinolin-8-yl)benzamide] | B (B represents a value between 10% to 50% cell rescue) | A (A represents a value greater than 50% cell rescue) | – | HEK293 Cells (TG-induced) cell rescue (HEK293 cells): A (A represents a value greater than 50% cell rescue) |
| CC(C)Oc1ccc(C(=O)Nc2cccc3cccnc23)cc1 [Compound A11, 4-Isopropoxy-N-(quinolin-8-yl)benzamide] | – | – | A′ (A′ represents an increase greater than 50%) | – |
| Cc1ccc2cccc(NC(=O)c3ccc(C)s3)c2n1 [Compound G2, 5-Methyl-N-(2-methylquinolin-8-yl)thiophene-2-carboxamide] | A (A represents a value greater than 50% cell rescue) | – | A′ (A′ represents an increase greater than 50%) | F [3]: 0.85%; AUC [3]: 0.0045 µg·h/mL; Cmax [3]: 0.02 µM; half-life [3]: 33.6 min; EC50 (CSM14.1 cells): < 20 µM |
| Cc1cc(C)n(-c2ccc3cccc(NC(=O)c4ccc(OC(C)C)cc4)c3n2)n1 [Compound F2, N-(2-(3,5-Dimethyl-1H-pyrazol-1-yl)quinolin-8-yl)-4-isopropoxybenzamide] | – | A (A represents a value greater than 50% cell rescue) | – | – |
| Cc1ccc2cccc(NC(=O)c3cc4ccccc4o3)c2n1 [Compound A27, N-(2-Methylquinolin-8-yl)benzofuran-2-carboxamide] | A (A represents a value greater than 50% cell rescue) | – | A′ (A′ represents an increase greater than 50%) | EC50 (CSM14.1 cells): < 20 µM |
| CC(C)Oc1ccc(C(=O)Nc2cccc3ccc(C(=O)O)nc23)cc1 [Compound E1, 8-(4-Isopropoxybenzamido)quinoline-2-carboxylic Acid] | – | A (A represents a value greater than 50% cell rescue) | – | – |
| O=C(O)c1ccc2cccc(NC(=O)c3ccc(Br)s3)c2n1 [Compound E3, 8-(5-Bromothiophene-2-carboxamido)quinoline-2-carboxylic Acid] | – | A (A represents a value greater than 50% cell rescue) | – | – |
| Cc1cc(C)n(-c2ccc3cccc(NC(=O)c4cc5ccccc5s4)c3n2)n1 [Compound F4, N-(2-(3,5-Dimethyl-1H-pyrazol-1-yl)quinolin-8-yl)benzo[b]thiophene-2-carboxamide] | – | B (B represents a value between 10% to 50% cell rescue) | – | – |
| Cc1ccc2cccc(NC(=O)c3cc(Br)c(Br)s3)c2n1 [Compound G7, 4,5-Dibromo-N-(2-methylquinolin-8-yl)thiophene-2-carboxamide] | A (A represents a value greater than 50% cell rescue) | – | A′ (A′ represents an increase greater than 50%) | EC50 (CSM14.1 cells): < 20 µM |
| Cc1ccc2cccc(NC(=O)c3cc4ccccc4s3)c2n1 [Compound B2, N-(2-Methylquinolin-8-yl)benzo[b]thiophene-2-carboxamide] | B (B represents a value between 10% to 50% cell rescue) | A (A represents a value greater than 50% cell rescue) | A′ (A′ represents an increase greater than 50%) | – |
| O=C(Nc1cccc2cccnc12)c1cccc(F)c1 [Compound A7, 3-Fluoro-N-(quinolin-8-yl)benzamide] | – | – | B′ (B′ represents an increase between 20 to 50%) | – |
| CC(C)Oc1cccc(C(=O)Nc2cccc3ccc(C(=O)O)nc23)c1 [Compound E2, 8-(3-Isopropoxybenzamido)quinoline-2-carboxylic acid] | – | A (A represents a value greater than 50% cell rescue) | – | – |
| Cc1ccc2cccc(NC(=O)c3sc(Br)cc3Br)c2n1 [Compound G6, 3,5-Dibromo-N-(2-methylquinolin-8-yl)thiophene-2-carboxamide] | A (A represents a value greater than 50% cell rescue) | – | C′ (C′ represents an increase no greater than 20%) | EC50 (CSM14.1 cells): < 20 µM |
| O=C(O)c1ccc2cccc(NC(=O)c3cc4ccccc4s3)c2n1 [Compound E4, 8-(Benzo[b]thiophene-2-carboxamido)quinoline-2-carboxylic Acid] | – | B (B represents a value between 10% to 50% cell rescue) | – | – |
| Cc1cc(C)n(-c2ccc3cccc(NC(=O)c4ccc(Br)s4)c3n2)n1 [Compound F3, 5-Bromo-N-(2-(3,5-dimethyl-1H-pyrazol-1-yl)quinolin-8-yl)thiophene-2-carboxamide] | – | A (A represents a value greater than 50% cell rescue) | – | – |
| Cc1ccc2cccc(NC(=O)c3cccc(F)c3)c2n1 [Compound C6, 3-Fluoro-N-(2-methylquinolin-8-yl)benzamide] | – | – | – | Cell Survival (CSM14.1 cells): C (C represents a value between 1% and 10%) |
| COc1ccc(CCC(=O)Nc2cccc3ccc(C)nc23)cc1 [Compound A23, 3-(4-Methoxyphenyl)-N-(2-methylquinolin-8-yl)propanamide] | – | – | A′ (A′ represents an increase greater than 50%) | – |
| CCOc1ccccc1C(=O)Nc1cccc2ccc(C)nc12 [Compound A10, 2-Ethoxy-N-(2-methylquinolin-8-yl)benzamide] | – | – | C′ (C′ represents an increase no greater than 20%) | – |
